Molecular target: cholinesterases (rat brain homogenate)
Assay: In vitro anticholinesterase inhibition test (rat brain homogenate, acetylcholine iodide substrate, automatic titration)
Type: biochemical
Settings: anticholinesterase activity in vitro; for IC50: rat brain homogenate, substrate acetylcholine iodide; for HillSlope: nonlinear regression (GraphPad Prism)
Description: In vitro inhibition test was conducted as described earlier. Solutions of the prepared Fe(L1)](ttcH2)(ClO4)·EtOH·H2O (1), [Mn3(phen)6(ttc)](ClO4)3 (2), and Ni2(L2)(ttcH)(ClO4)2·6H2O·EtOH (3) complexes of appropriate concentrations (concentration range from 10^−7 to 10^−1 M; 500 µL) were added to the suspension of rat brain homogenate (10 w/v in distilled water; 500 µL), solution of sodium chloride (3 M; 2.5 mL) and water (20 mL). Subsequently, a solution of acetylcholine iodide (0.02 M; 2.0 mL) was added (=starting of the enzyme reaction). The enzyme activity was immediately determined using of automatic titrator RTS 822 (Radiometer, Bronshoj, Denmark). The IC50 values were calculated from a plot of percent inhibition of cholinesterases versus its concentration. […] Nonlinear regression was performed using software for statistical analysis GraphPad Prism version 4 for Windows (GraphPad Software, San Diego, CA, USA; www.graphpad.com).

Compound | IC50 | HillSlope
O=S(=O)([O-])[O-].[Fe+2] [FeSO4, reference compound] | > 1000 µM | 
O=S(=O)([O-])[O-].[Mn+2] [MnSO4, reference compound] | > 1000 µM | 
O=S(=O)([O-])[O-].[Ni+2] [NiSO4, reference compound] | 12900 µM | −0.3920
[Mn3(phen)6(ttc)](ClO4)3 [compound 2] | 33.4 µM | 0.2280

Reference: article PMC6272027, “Trithiocyanurate Complexes of Iron, Manganese and Nickel and Their Anticholinesterase Activity” (Molecules, 2014)
